According to patent US20240191244A1 (priority 2020, published 2024):

Tested on: wild-type HN08 strain
Type: cell-based, C. siamense

N#Cc1c[nH]cc1-c1cccc2c1OC(F)(F)O2 [fludioxonil]
strain growth rate: gradually decreases
